# In patent US7989203B2, “Methods for use of apoptotic cells to deliver antigen to dendritic cells for induction or tolerization of T cells” (The Rockefeller University, priority 1998, dated 2011):
# Entries after “also recorded” stand apart in the source; their conditions may differ. Where two headings read alike, the source gives them in different places. *: point of attachment. Cbz = O=C(OCc1ccccc1)*
# What was measured:
# DCs [1] = format: cell-based, human
# protein kinase C = settings: footnote to Table II; cited from earlier work
# immature DCs = format: cell-based, human; settings: for Percent Inhibition of phagocytosis of apoptotic cells: immature DC/apoptotic cell coculture, averages of 2-4 experiments
# DCs [2] = test: Y-Ae epitope (I-Ab/I-E peptide complex) formation on DCs cultured with B blasts (FACS); format: cell-based, mouse; settings: DCs cultured 20 h with B blasts
# Procedure: [FIG. 11B]: Y-Ae epitope formation is blocked by NH4Cl. DCs were cultured 20 h with B blasts with or without NH4Cl at 5-20 mM. The cultures were stained for Y-Ae and CD86.
# Antibodies. The Y-Ae hybridoma was generously provided by Dr. C. Janeway, Yale University, New Haven Conn. and grown serum-free. The IgG2b antibody was purified on protein A sepharose, biotinylated, and used in the FACS along with PE-streptavidin to detect MHC class II-peptide complexes (75,76) with a mouse IgG2b anti-human TCR antibody as the non-reactive control [PharMingen, San Diego Calif.]. The cells were double labeled for FACS and for microscopy with FITC antibodies to CD8, CD11c, CD86, I-Ab [AF6-120.1], 1-Ad, and I-E [14-4-4S][PharMingen].
# Capture of cell-derived peptides in vitro. Bone marrow DCs were generated in 24 well plates for 6 days in GM-CSF, gently washed to remove mature floating DCs, and then fed B blasts, human cells, or a peptide [residues 56-73 of 1-Eα]. Before adding I-E^+ cells or peptide, the DCs were immature, since much of the MHC class II was in intracellular lysosomal compartments and CD86 was not expressed at the surface (84) After uptake of I-E, the DCs matured with high levels of surface MHC II and CD86.
# [3] = system: influenza-infected monocytes; format: cell-based, human; settings: concentrations which inhibited apoptosis of the infected monocytes; 7 days
# [4] = system: influenza-infected monocytes; format: cell-based, human; settings: determined by TUNEL; without affecting expression of viral proteins
# phospholipase D = settings: footnote to Table II; cited from earlier work
molecule,measurement,setting,value
"C[C@H]1CCC/C=C/[C@@H]2C[C@H](O)C[C@H]2[C@H](O)/C=C/C(=O)O1 [BFA, Brefeldin A]",DCs ability to present antigenic material on MHC class I,DCs [1]; DCs preincubated with 6 ug/ml,completely inhibited
"COc1ccc2c(c[n+](C)c3c4cc5c(cc4ccc23)OCO5)c1OC.[Cl-] [CC, Chelethrine chloride]",IC50,protein kinase C,660 nM
same,Percent Inhibition of phagocytosis of apoptotic cells,immature DCs; 12 μM,4%
C=C1[C@@H](C)[C@H]2[C@H](Cc3ccccc3)NC(=O)[C@]23[C@H](OC(C)=O)/C=C/[C@@](C)(O)C(=O)[C@@H](C)C/C=C/[C@H]3[C@@H]1O [Cytochalasin D],inhibition of phagocytosis of apoptotic cells by immature DCs (in words),immature DCs; concentration not given,blocked uptake
O=C(O)CN(CCN(CC(=O)O)CC(=O)O)CC(=O)O [EDTA],inhibition of phagocytosis of apoptotic cells by immature DCs (in words),immature DCs,inhibitory
"O=C(O)c1cc(N(Cc2ccccc2O)Cc2cc(O)ccc2O)ccc1O [LA, Lavendustin A]",Percent Inhibition of phagocytosis of apoptotic cells,immature DCs; 10 μM,14%
same,Percent Inhibition of phagocytosis of apoptotic cells,immature DCs; 40 μM,41.5%
"O=C(O)c1cc(N(Cc2ccccc2O)Cc2ccccc2O)ccc1O [LB, Lavendustin B]",Percent Inhibition of phagocytosis of apoptotic cells,immature DCs; 10 μM,0%
same,Percent Inhibition of phagocytosis of apoptotic cells,immature DCs; 40 μM,0%
CC(=O)N[C@@H](CSC(=O)[C@]1([C@@H](O)C(C)C)NC(=O)[C@H](C)[C@@H]1O)C(=O)O [Lactacystin],antigen presentation by the uninfected DCs,"DCs [1]; unpublished data, concentration not given",only partially blocked
"Cl.N [NH4Cl, ammonium chloride]",DCs ability to present antigenic material on MHC class I,DCs [1],completely inhibited
same,Y-Ae development (epitope formation),DCs [2]; 5 mM,partially
same,Y-Ae development (epitope formation),DCs [2]; 20 mM,totally blocked; also recorded: completely blocked
Cbz-Val-Ala-Asp-aldehyde,generation of virus-specific CTLs after transfer of medium from treated infected monocytes to T cells and uninfected DCs,[3],virus-specific CTLs were not generated
same,apoptosis of influenza-infected monocytes,[4],block apoptosis
Herbamycin A,Percent Inhibition of phagocytosis of apoptotic cells,immature DCs; 1.8 μM,6.5%
same,Percent Inhibition of phagocytosis of apoptotic cells,immature DCs; 9 μM,49%
same,Percent Inhibition of phagocytosis of apoptotic cells,immature DCs; 18 μM,66.5%
same,"IC50, PDGF-induced phospholipase D activation",phospholipase D,^§Herbamycin A is a potent cell-permeable protein tyrosine kinase inhibitor and inhibits PDGF-induced phospholipase D activation (IC50 = 8 μg/ml) in a dose dependant manner.
TSP: purified TSP (thrombospondin),inhibition of phagocytosis of apoptotic cells by immature DCs (in words),immature DCs; concentration not given,nor the addition of purified TSP to DC/apoptotic cell co-cultures has an inhibitory effect
